Reference: US10301664B2, “Repurposing non-antimicrobial drugs and clinical molecules to treat bacterial infections” (Purdue Research Foundation, priority 2015, dated 2019)
In brackets after ≈: the same amount, converted by molar mass. Like-named read-outs stand apart in the source and are kept apart here.

Tests used:
S. epidermidis NRS 101 = assay: MIC and MBC against S. epidermidis (CLSI); type: cell-based; conditions: Staphylococcus epidermidis, NRS101
[1] = test system: Methicillin resistant S. aureus (MRSA); assay: MIC and MBC against methicillin resistant S. aureus clinical isolates (CLSI); type: cell-based; conditions: Staphylococcus aureus
[2] = test system: E. faecium ATCC 700221 (VRE); assay: MIC and MBC against E. faecium VRE (CLSI), Table 1; type: cell-based; conditions: Enterococcus faecium
[3] = test system: VISA and VRSA (14) clinical isolates; assay: MIC against Gram +ve clinical isolates: VISA and VRSA; type: cell-based, S. aureus; conditions: Staphylococcus aureus
MRSA USA300 = assay: Library hits: MIC/MBC against MRSA; type: cell-based, Staphylococcus aureus; conditions: Staphylococcus aureus
[4] = test system: Vancomycin-intermediate S. aureus (VISA); assay: MIC and MBC against vancomycin-intermediate S. aureus isolates (CLSI); type: cell-based; conditions: Staphylococcus aureus
[5] = test system: clinical isolates of S. aureus; assay: MIC90 over clinical isolates of S. aureus; type: cell-based; conditions: Staphylococcus aureus, Table 1, read-out: MIC90 (MIC at which 90% of clinical isolates of S. aureus were inhibited)
[6] = test system: E. fecalis ATCC 51229 (VRE); assay: MIC and MBC against E. fecalis VRE (CLSI); type: cell-based; conditions: Enterococcus
Method: The NIH Clinical Collections 1 and 2 (http://www.nihclinicalcollection.com) containing 727 FDA approved drugs and small molecules previously used in human clinical trials with known safety profiles were screened against ESKAPE pathogens. The library was initially screened at a single concentration of 16 μM to identify “hit” non-antibacterial drugs. Once the antimicrobial activity of the drugs was confirmed, we determined their MICs and minimum bactericidal concentrations (MBCs) according to the Clinical and Laboratory Standards Institute (CLSI).

MRSA USA200 = type: in vivo, BALB/c mice; conditions: oral, EB 30 mg/kg or FdUrd 25 mg/kg once daily for three days, monitored six days
Method: Animal procedures were approved by the Purdue University Animal Care and Use Committee (PACUC) (protocol no. 1311000988). Eight-week-old female BALB/c mice (Harlan Laboratories, Indianapolis, Ind.) were used for this study. Mice were rendered neutropenic by treatment with cyclophosphamide intraperitoneally (IP) 150 and 100 mg/kg at four days and one day before infection, respectively. Neutropenic mice were inoculated IP with 8×10^8 MRSA USA200. At one hour after infection, the mice were divided into five groups (n=10 per group), and two groups were treated orally with either EB 30 mg/kg or FdUrd 25 mg/kg. Two groups were treated IP with either EB 30 mg/kg or FdUrd 25 mg/kg. One group was used as a control with no treatment. Treatment was continued once daily for two more days (animals received three doses total). Mortality was monitored four times daily for six days, and the cumulative percent survival was determined. The data were subjected to statistical analysis using Kaplan-Meier survival curves. A log rank test was performed for 95% confidence intervals by GraphPad Prism 6.0 (GraphPad Software, La Jolla, Calif.).

[7] = test system: Methicillin-sensitive S. aureus (MSSA); assay: MIC and MBC against methicillin-sensitive S. aureus isolates (CLSI); type: cell-based; conditions: Staphylococcus aureus
[8] = test system: vancomycin resistant E. faecium ATCC 700221 (VRE); assay: Library hits: MIC/MBC against VRE; type: cell-based; conditions: VRE
[9] = test system: Vancomycin-resistant S. aureus (VRSA); assay: MIC and MBC against vancomycin-resistant S. aureus clinical isolates (CLSI); type: cell-based
K. pneumonia = assay: MIC against G-ve with and without colistin: K. pneumonia; type: cell-based; conditions: without colistin

O=c1c2ccccc2[se]n1-c1ccccc1 [Ebselen]
MBC (S. epidermidis NRS 101): 0.5 µg/mL (≈ 1.82 µM)
MIC (S. epidermidis NRS 101): 0.5 µg/mL (≈ 1.82 µM)
MBC ([1]; MRSA / NRS 70, read-out: MBC): 0.25 µg/mL (≈ 0.912 µM)
MIC ([1]; MRSA / NRS 70, read-out: MIC): 0.25 µg/mL (≈ 0.912 µM)
MBC ([1]; MRSA / NRS 71, read-out: MBC): 0.25 µg/mL (≈ 0.912 µM)
MIC ([1]; MRSA / NRS 71, read-out: MIC): 0.25 µg/mL (≈ 0.912 µM)
MBC ([1]; MRSA / NRS 100, read-out: MBC): 0.5 µg/mL (≈ 1.82 µM)
MIC ([1]; MRSA / NRS 100, read-out: MIC): 0.25 µg/mL (≈ 0.912 µM)
MBC ([1]; MRSA / NRS 108, read-out: MBC): 0.25 µg/mL (≈ 0.912 µM)
MIC ([1]; MRSA / NRS 108, read-out: MIC): 0.25 µg/mL (≈ 0.912 µM)
MBC ([1]; MRSA / NRS 119): 0.25 µg/mL (≈ 0.912 µM)
MIC ([1]; MRSA / NRS 119): 0.125 µg/mL (≈ 0.456 µM)
MBC ([1]; MRSA / NRS 123, read-out: MBC): 0.5 µg/mL (≈ 1.82 µM)
MIC ([1]; MRSA / NRS 123, read-out: MIC): 0.25 µg/mL (≈ 0.912 µM)
MBC ([1]; MRSA / NRS 194, read-out: MBC): 1 µg/mL (≈ 3.65 µM)
MIC ([1]; MRSA / NRS 194, read-out: MIC): 0.25 µg/mL (≈ 0.912 µM)
MBC ([1]; MRSA / NRS 382): 0.125 µg/mL (≈ 0.456 µM)
MIC ([1]; MRSA / NRS 382): 0.125 µg/mL (≈ 0.456 µM)
MBC ([1]; MRSA / NRS 383): 0.125 µg/mL (≈ 0.456 µM)
MIC ([1]; MRSA / NRS 383): 0.125 µg/mL (≈ 0.456 µM)
MBC ([1]; MRSA / NRS 384): 0.125 µg/mL (≈ 0.456 µM)
MIC ([1]; MRSA / NRS 384): 0.125 µg/mL (≈ 0.456 µM)
MBC ([1]; MRSA / NRS 385, NRS 385, read-out: MBC): 1 µg/mL (≈ 3.65 µM)
MIC ([1]; MRSA / NRS 385, NRS 385, read-out: MIC): 0.5 µg/mL (≈ 1.82 µM)
MBC ([1]; MRSA / NRS 386): 1 µg/mL (≈ 3.65 µM)
MIC ([1]; MRSA / NRS 386): 0.125 µg/mL (≈ 0.456 µM)
MBC ([1]; MRSA / NRS 387): 0.25 µg/mL (≈ 0.912 µM)
MIC ([1]; MRSA / NRS 387): 0.125 µg/mL (≈ 0.456 µM)
MBC ([1]; MRSA / NRS 483): 0.5 µg/mL (≈ 1.82 µM)
MIC ([1]; MRSA / NRS 483): 0.125 µg/mL (≈ 0.456 µM)
MBC ([1]; MRSA / NRS 484, NRS 484, read-out: MBC): 0.25 µg/mL (≈ 0.912 µM)
MIC ([1]; MRSA / NRS 484, NRS 484, read-out: MIC): 0.25 µg/mL (≈ 0.912 µM)
MBC [2]: 1 µg/mL (≈ 3.65 µM)
MIC [2]: 0.5 µg/mL (≈ 1.82 µM)
MIC50 [3]: 0.125 µg/mL (≈ 0.456 µM)
MIC50 ([3]; read-out: MIC50): 0.25 µg/mL (≈ 0.912 µM)
MBC (MRSA USA300; read-out: MBC): 0.5 µM (≈ 0.137 µg/mL)
MIC (MRSA USA300; read-out: MIC): < 0.5 µM
MBC ([4]; NRS 1 / VISA): 0.125 µg/mL (≈ 0.456 µM)
MIC ([4]; NRS 1 / VISA): 0.125 µg/mL (≈ 0.456 µM)
MBC ([4]; NRS 37 / VISA): 0.125 µg/mL (≈ 0.456 µM)
MIC ([4]; NRS 37 / VISA): 0.125 µg/mL (≈ 0.456 µM)
MIC90 [5]: 0.25 µg/mL (≈ 0.912 µM)
MBC [6]: 0.5 µg/mL (≈ 1.82 µM)
MIC [6]: 0.5 µg/mL (≈ 1.82 µM)
mice survival compared to that of control (MRSA USA200): 60%
MBC ([7]; MSSA / NRS 72, read-out: MBC): 0.5 µg/mL (≈ 1.82 µM)
MIC ([7]; MSSA / NRS 72, read-out: MIC): 0.25 µg/mL (≈ 0.912 µM)
MBC ([7]; MSSA / NRS 77, read-out: MBC): 1 µg/mL (≈ 3.65 µM)
MIC ([7]; MSSA / NRS 77, read-out: MIC): 0.25 µg/mL (≈ 0.912 µM)
MBC ([7]; MSSA / NRS 846): > 64 µg/mL
MIC ([7]; MSSA / NRS 846): 0.125 µg/mL (≈ 0.456 µM)
MBC ([7]; MSSA / NRS 860, read-out: MBC): 0.25 µg/mL (≈ 0.912 µM)
MIC ([7]; MSSA / NRS 860, read-out: MIC): 0.25 µg/mL (≈ 0.912 µM)
MBC [8]: 1 µM (≈ 0.274 µg/mL)
MIC ([8]; read-out: MIC): 0.5 µM (≈ 0.137 µg/mL)
MIC ([9]; Staphylococcus aureus, VRSA): 0.125 µg/mL (≈ 0.456 µM)
MBC ([9]; Staphylococcus aureus, VRSA, VRSA1, read-out: MBC): 0.25 µg/mL (≈ 0.912 µM)
MIC ([9]; Staphylococcus aureus, VRSA, VRSA1, read-out: MIC): 0.25 µg/mL (≈ 0.912 µM)
MBC ([9]; Staphylococcus aureus, VRSA, VRSA2, read-out: MBC): 0.25 µg/mL (≈ 0.912 µM)
MIC ([9]; Staphylococcus aureus, VRSA, VRSA2, read-out: MIC): 0.25 µg/mL (≈ 0.912 µM)
MBC ([9]; Staphylococcus aureus, VRSA, VRSA3a, read-out: MBC): 0.25 µg/mL (≈ 0.912 µM)
MIC ([9]; Staphylococcus aureus, VRSA, VRSA3a, read-out: MIC): 0.25 µg/mL (≈ 0.912 µM)
MBC ([9]; Staphylococcus aureus, VRSA, VRSA3b, read-out: MBC): 1 µg/mL (≈ 3.65 µM)
MIC ([9]; Staphylococcus aureus, VRSA, VRSA3b, read-out: MIC): 0.25 µg/mL (≈ 0.912 µM)
MBC ([9]; Staphylococcus aureus, VRSA, VRSA4): 0.125 µg/mL (≈ 0.456 µM)
MBC ([9]; Staphylococcus aureus, VRSA, VRSA5, read-out: MBC): 0.25 µg/mL (≈ 0.912 µM)
MIC ([9]; Staphylococcus aureus, VRSA, VRSA5, read-out: MIC): 0.25 µg/mL (≈ 0.912 µM)
MBC ([9]; Staphylococcus aureus, VRSA, VRSA6, read-out: MBC): 0.5 µg/mL (≈ 1.82 µM)
MIC ([9]; Staphylococcus aureus, VRSA, VRSA6, read-out: MIC): 0.25 µg/mL (≈ 0.912 µM)
MBC ([9]; Staphylococcus aureus, VRSA, VRSA7, read-out: MBC): 0.5 µg/mL (≈ 1.82 µM)
MIC ([9]; Staphylococcus aureus, VRSA, VRSA7, read-out: MIC): 0.5 µg/mL (≈ 1.82 µM)
MBC ([9]; Staphylococcus aureus, VRSA, VRSA8): 0.125 µg/mL (≈ 0.456 µM)
MBC ([9]; Staphylococcus aureus, VRSA, VRSA9, read-out: MBC): 0.5 µg/mL (≈ 1.82 µM)
MIC ([9]; Staphylococcus aureus, VRSA, VRSA9, read-out: MIC): 0.25 µg/mL (≈ 0.912 µM)
MBC ([9]; Staphylococcus aureus, VRSA, VRSA10, read-out: MBC): 0.25 µg/mL (≈ 0.912 µM)
MIC ([9]; Staphylococcus aureus, VRSA, VRSA10, read-out: MIC): 0.25 µg/mL (≈ 0.912 µM)
MBC ([9]; Staphylococcus aureus, VRSA, VRSA11b, read-out: MBC): 0.25 µg/mL (≈ 0.912 µM)
MIC ([9]; Staphylococcus aureus, VRSA, VRSA11b, read-out: MIC): 0.25 µg/mL (≈ 0.912 µM)
MBC ([9]; Staphylococcus aureus, VRSA, VRSA12, read-out: MBC): 0.5 µg/mL (≈ 1.82 µM)
MIC ([9]; Staphylococcus aureus, VRSA, VRSA12, read-out: MIC): 0.25 µg/mL (≈ 0.912 µM)
MBC ([9]; Staphylococcus aureus, VRSA, VRSA13, read-out: MBC): 0.25 µg/mL (≈ 0.912 µM)
MIC ([9]; Staphylococcus aureus, VRSA, VRSA13, read-out: MIC): 0.25 µg/mL (≈ 0.912 µM)
MIC ([9]; VRSA8): 0.125/0.125 mg/L
MIC ([9]; VRSA11a): 0.125 µg/mL (≈ 0.456 µM)
MIC, colistin (−) (K. pneumonia): 64 µg/mL (≈ 233 µM)
